Results: ChEMBL document CHEMBL1201862, “PubChem BioAssay data set” (2004)
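1) Cells in 96-well plates. 2) Compound, 48 h, 5 concentrations. 3) Linear interpolation between surrounding doses. 4) Unreached endpoint = highest concentration. GI50 marks 50% less growth.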 Activity calls are given as the source filed them. Cut-off read from the data, not from the text of the source: active = GI50 up to about 1.1 µM and inactive = higher.

What was measured:
Experiment in all cases: DTP human tumour cell line panel, 48 h
[1] = test system: EKVX
[2] = test system: HOP-92
[3] = test system: OVCAR-5
[4] = test system: UO-31
[5] = test system: M19-MEL
[6] = test system: OVCAR-4
[7] = test system: DLD-1
[8] = test system: ACHN
[9] = test system: CCRF-CEM
[10] = test system: CAKI-1
[11] = test system: RXF 631
[12] = test system: A498
[13] = test system: SK-MEL-2
[14] = test system: SF-295
[15] = test system: LXFL 529
[16] = test system: SNB-19
[17] = test system: SW-620
[18] = test system: SK-OV-3
[19] = test system: NCI-H226
[20] = test system: SN12C
[21] = test system: SNB-75
[22] = test system: HCT-15
[23] = test system: Malme-3M
[24] = test system: MOLT-4
[25] = test system: 786-0
[26] = test system: DMS-273
[27] = test system: UACC-257
[28] = test system: KM-20L2
[29] = test system: HOP-62
[30] = test system: A549
[31] = test system: HCT-116
[32] = test system: SK-MEL-5
[33] = test system: NCI-H522
[34] = test system: HL-60
[35] = test system: OVCAR-8
[36] = test system: SNB-78
[37] = test system: HT-29
[38] = test system: OVCAR-3
[39] = test system: M14
[40] = test system: K562
[41] = test system: NCI-H460
[42] = test system: SK-MEL-28
[43] = test system: NCI-H23
[44] = test system: SF-539
[45] = test system: HCC 2998
[46] = test system: KM12
[47] = test system: RPMI-8226
[48] = test system: SF-268
[49] = test system: UACC-62
[50] = test system: HOP-18
[51] = test system: COLO 205
[52] = test system: IGROV-1
[53] = test system: DMS-114
[54] = test system: XF498
[55] = test system: TK-10
[56] = test system: U-251

Question: With Nn1c(-c2ccccc2Cl)nc2ccccc2c1=O as the molecule, how does the GI50 [1] read?
Answer: > 100 µM (inactive)

Question: What about the GI50 [2] of the same molecule?
Answer: > 100 µM (inactive)

Question: And the GI50 [3]?
Answer: > 100 µM (inactive)

Question: And the GI50 [4]?
Answer: > 100 µM (inactive)

Question: What about the GI50 [5] of the same molecule?
Answer: > 100 µM (inactive)

Question: And the GI50 [6]?
Answer: > 100 µM (inactive)

Question: And the GI50 [7]?
Answer: > 100 µM (inactive)

Question: What about the GI50 [8] of the same molecule?
Answer: > 100 µM (inactive)

Question: What about the GI50 [9] of the same molecule?
Answer: > 100 µM (inactive)

Question: And the GI50 [10]?
Answer: > 100 µM (inactive)

Question: And the GI50 [11]?
Answer: > 100 µM (inactive)

Question: And the GI50 [12]?
Answer: > 100 µM (inactive)

Question: And the GI50 [13]?
Answer: > 100 µM (inactive)

Question: What about the GI50 [14] of the same molecule?
Answer: > 100 µM (inactive)

Question: What about the GI50 [15] of the same molecule?
Answer: > 100 µM (inactive)

Question: And the GI50 [16]?
Answer: > 100 µM (inactive)

Question: What about the GI50 [17] of the same molecule?
Answer: > 100 µM (inactive)

Question: What about the GI50 [18] of the same molecule?
Answer: > 100 µM (inactive)

Question: What about the GI50 [19] of the same molecule?
Answer: 57 µM (inactive)

Question: And the GI50 [20]?
Answer: > 100 µM (inactive)

Question: And the GI50 [21]?
Answer: > 100 µM (inactive)

Question: What about the GI50 [22] of the same molecule?
Answer: > 100 µM

Question: What about the GI50 [23] of the same molecule?
Answer: 83.8 µM (inactive)

Question: And the GI50 [24]?
Answer: > 100 µM (inactive)

Question: And the GI50 [25]?
Answer: > 100 µM (inactive)

Question: What about the GI50 [26] of the same molecule?
Answer: > 100 µM (inactive)

Question: What about the GI50 [27] of the same molecule?
Answer: > 100 µM (inactive)

Question: And the GI50 [28]?
Answer: > 100 µM (inactive)

Question: What about the GI50 [29] of the same molecule?
Answer: > 100 µM (inactive)

Question: What about the GI50 [30] of the same molecule?
Answer: > 100 µM (inactive)

Question: What about the GI50 [31] of the same molecule?
Answer: > 100 µM (inactive)

Question: What about the GI50 [32] of the same molecule?
Answer: > 100 µM (inactive)

Question: What about the GI50 [33] of the same molecule?
Answer: > 100 µM (inactive)

Question: And the GI50 [34]?
Answer: > 100 µM (inactive)

Question: What about the GI50 [35] of the same molecule?
Answer: > 100 µM (inactive)

Question: What about the GI50 [36] of the same molecule?
Answer: > 100 µM (inactive)

Question: And the GI50 [37]?
Answer: > 100 µM (inactive)

Question: And the GI50 [38]?
Answer: > 100 µM (inactive)

Question: And the GI50 [39]?
Answer: > 100 µM (inactive)

Question: What about the GI50 [40] of the same molecule?
Answer: > 100 µM (inactive)

Question: What about the GI50 [41] of the same molecule?
Answer: > 100 µM (inactive)

Question: And the GI50 [42]?
Answer: > 100 µM (inactive)

Question: And the GI50 [43]?
Answer: > 100 µM (inactive)

Question: What about the GI50 [44] of the same molecule?
Answer: > 100 µM (inactive)

Question: What about the GI50 [45] of the same molecule?
Answer: > 100 µM (inactive)

Question: What about the GI50 [46] of the same molecule?
Answer: > 100 µM (inactive)

Question: And the GI50 [47]?
Answer: > 100 µM (inactive)

Question: And the GI50 [48]?
Answer: > 100 µM (inactive)

Question: What about the GI50 [49] of the same molecule?
Answer: > 100 µM (inactive)

Question: What about the GI50 [50] of the same molecule?
Answer: 44.8 µM (inactive)

Question: What about the GI50 [51] of the same molecule?
Answer: > 100 µM (inactive)

Question: And the GI50 [52]?
Answer: > 100 µM (inactive)

Question: What about the GI50 [53] of the same molecule?
Answer: > 100 µM (inactive)

Question: And the GI50 [54]?
Answer: > 100 µM (inactive)

Question: And the GI50 [55]?
Answer: > 100 µM (inactive)

Question: What about the GI50 [56] of the same molecule?
Answer: > 100 µM (inactive)
